Experimental data taken from PubChem BioAssay (NCI).
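96-well plates; 48 h exposure; 5 concentrations. Endpoints by linear interpolation between flanking doses. Not reached: highest tested concentration assigned. GI50 marks 50% less growth. TGI: concentration producing complete growth inhibition.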

How the values were obtained:
Assay in all cases: DTP human tumour cell line panel, 48 h
RXF 393 renal = tested on: RXF 393 renal
SF-539 CNS = tested on: SF-539 CNS
MCF7 breast = tested on: MCF7 breast
U251 CNS = tested on: U251 CNS
CAKI-1 renal = tested on: CAKI-1 renal
MDA-MB-231 breast = tested on: MDA-MB-231 breast
HOP-62 NSCLC = tested on: HOP-62 NSCLC
UACC-257 melanoma = tested on: UACC-257 melanoma
ACHN renal = tested on: ACHN renal
SR leukemia = tested on: SR leukemia

Structure (SMILES) | GI50 (RXF 393 renal) [µM] | TGI (RXF 393 renal) [µM] | GI50 (SF-539 CNS) [µM] | TGI (SF-539 CNS) [µM] | GI50 (MCF7 breast) [µM] | TGI (MCF7 breast) [µM] | GI50 (U251 CNS) [µM] | TGI (U251 CNS) [µM] | GI50 (CAKI-1 renal) [µM] | TGI (CAKI-1 renal) [µM] | GI50 (MDA-MB-231 breast) [µM] | TGI (MDA-MB-231 breast) [µM] | GI50 (HOP-62 NSCLC) [µM] | TGI (HOP-62 NSCLC) [µM] | GI50 (UACC-257 melanoma) [µM] | TGI (UACC-257 melanoma) [µM] | GI50 (ACHN renal) [µM] | TGI (ACHN renal) [µM] | TGI (SR leukemia) [µM] | GI50 (SR leukemia) [µM]
O=C(/C=C/C12c3ccccc3C(c3ccccc31)C1C(=O)NC(=O)C12)c1ccc(F)cc1 (configuration not stated) | 1.77 | 3.3 | 1.7 | 3.11 | 1.66 | 4.48 | 1.63 | 3.07 | 1.87 | 4.37 | 3.05 | 9.58 | 2.63 | 7.4 | 1.79 | 3.37 | 2.43 | 6.18 | – | –
CC(C(N)C(=O)NC(C(=O)O)C1OC(n2ccc(=O)[nH]c2=O)C(O)C1O)C(O)c1ccc(O)cn1 (configuration not stated) | – | – | – | > 100 | – | > 100 | – | > 100 | – | > 100 | – | > 100 | – | > 100 | – | > 100 | – | > 100 | > 100 | –
O=C(CCn1[nH]c(=O)c(Cl)c(Cl)c1=O)NNC(=O)C[n+]1ccccc1 | – | > 100 | – | > 100 | – | – | – | – | – | > 100 | – | – | – | > 100 | – | – | – | > 100 | – | –
Oc1c(Cl)cc(Cl)cc1C(c1cc(Cl)cc(Cl)c1O)C(Cl)(Cl)Cl | 2.38 | 6.66 | 3.17 | 13 | 2.7 | 14.2 | 2.52 | 14.4 | 0.472 | 2.06 | 1.59 | 4.81 | 3.77 | 15 | 3.33 | 9.18 | 2.82 | 12 | – | –
CCCCCCCCCC(=O)OCC1OC(n2cc(F)c(=O)[nH]c2=O)C(NC(=O)OCc2ccccc2)C(OC(=O)CCCCCCCCC)C1O (configuration not stated) | – | 44 | – | > 100 | – | – | – | 30.3 | – | > 100 | – | – | – | > 100 | – | > 100 | – | > 100 | 81.2 | –
Nc1ccc(-c2cccs2)cc1NC(=O)c1ccc(CCCC(=O)Nc2ccc(C3CC3N)cc2)cc1 (configuration not stated) | 2.45 | 30 | 2.42 | 7.94 | – | – | 1.6 | 3.16 | > 100 | > 100 | – | – | – | – | – | – | – | – | – | –
C=C1CC2CC(O)CC(C1)C2 (configuration not stated) | – | > 100 | – | > 100 | – | – | – | > 100 | – | > 100 | – | – | – | > 100 | – | > 100 | – | > 100 | > 100 | –
CSc1snc2sc3c(Cl)nnnc3c12 | – | 25.1 | – | 32.1 | – | – | – | 28.6 | – | 15.9 | – | – | – | 31.9 | – | 26.8 | – | 23.3 | – | –
O=C(CC(=O)c1cccc2ccccc12)C(=O)NC1C2CC3CC(C2)CC1C3 (configuration not stated) | – | – | – | > 100 | – | – | – | > 100 | – | > 100 | – | – | – | > 100 | – | > 100 | – | > 100 | – | –
CCCN(CCC)c1ccc(/C=N/NC(=O)c2cccnc2)c(OC)c1 | 28.7 | 84.8 | 28.3 | > 100 | 19.1 | 89.1 | 23.2 | > 100 | 21.5 | 93.2 | – | – | 31.3 | > 100 | 20.7 | 67.6 | 28.8 | > 100 | 59.6 | 17.1
Nc1n[n+](-c2ccccc2)no1 | – | – | – | > 100 | – | – | – | > 100 | – | > 100 | – | – | – | > 100 | – | > 100 | – | > 100 | – | –
CC(=O)O[C@@]1(C)[C@@H](C)C(=O)O[C@@H]2CCN3CC=C(COC(=O)[C@]1(C)O)[C@H]23 | – | – | – | > 100 | – | – | – | > 100 | – | > 100 | – | – | – | > 100 | – | > 100 | – | > 100 | > 100 | –
CC(=O)c1c(CO[N+](=O)[O-])n([O-])c2ccccc2[n+]1=O | – | – | – | > 100 | – | > 100 | – | > 100 | – | > 100 | – | > 100 | – | > 100 | – | > 100 | – | > 100 | > 100 | –
COc1ccc2oc(C(=O)O)c3c2c1CCC3CCC(=O)O (configuration not stated) | – | > 100 | – | > 100 | – | – | – | > 100 | – | – | – | – | – | > 1 | – | > 100 | – | > 100 | > 100 | –
CCOC(=O)c1cnc2sc3ccc4ccccc4c3n2c1=O | – | > 100 | – | > 100 | – | – | – | > 100 | – | 99.4 | – | – | – | > 100 | – | > 100 | – | > 100 | > 100 | –
CO/N=C(\COc1ccc2oc(-c3ccccc3)cc(=O)c2c1)c1ccc(OC)cc1 | 29 | 97.5 | 24.4 | 64.7 | – | – | 22.3 | 53.6 | 22.7 | 69.2 | 22 | 45.2 | 17 | 33 | 23.4 | 63.3 | 23.4 | 51.9 | 36.9 | 11.3
O=C1c2ccccc2-c2c1c1c(O)cccc1n2Cc1ccccn1 | 45.7 | > 100 | 17 | 44.1 | 62.4 | > 100 | 94.4 | > 100 | 20.4 | > 100 | 28.5 | > 100 | 84.9 | > 100 | 23.1 | 60.4 | 25.8 | > 100 | – | –
O=C(N/N=C1\C(=O)N(c2nccs2)C(=O)C(=O)C1c1nc2ccccc2s1)c1ccccc1O (configuration not stated) | – | > 100 | – | > 100 | – | – | – | > 100 | – | > 100 | – | – | – | 90.4 | – | > 100 | – | > 100 | – | –
Cc1[nH]c(=O)[nH]c1C(=O)c1ccc(-n2ccnc2)cc1 | – | > 100 | – | > 100 | – | – | – | > 100 | – | > 100 | – | – | – | > 100 | – | > 100 | – | > 100 | > 100 | –
N#CC1(C#N)C2C=CC(c3coc4cccc2c34)C1(C#N)C#N (configuration not stated) | – | 9.66 | – | 35.2 | – | – | – | 33.9 | – | – | – | – | – | 46.5 | – | 23.1 | – | 17 | 7.83 | –
CCc1cc(CCC(=O)Nc2ccccc2[N+](=O)[O-])[nH]c(=S)n1 | – | > 100 | – | > 100 | – | – | – | > 100 | – | – | – | – | – | > 100 | – | > 100 | – | > 100 | > 100 | –
